Test: wn = mass fraction of the nth substance listed
Conditions: 100 kPa, Liquid

O=C([O-])[C@@H]1CCCN1.[K+] [potassium L-prolinate] + O
mass density [kg/m3]
Conditions | 293.15 K | 303.15 K | 313.15 K | 323.15 K
w1 = 0.01 | 1007.1 | 1004.3 | 1001.6 | 997.9
w1 = 0.04 | 1023.4 | 1019.6 | 1016.1 | 1009.5
w1 = 0.1 | 1047.2 | 1042.8 | 1037.9 | 1026.7
